Structures can show the parent of a compound that is named as a salt.
How the values were obtained:
[1] = test system: experimental hyperlipemia induced by Triton (rats); experiment: Activity on the experimental hyperlipemia induced by Triton; type: in vivo; details: rat, Triton 300 mg/kg i.p., 18 hours
Protocol: EXAMPLE XV-ACTIVITY ON THE EXPERIMENTAL HYPERLIPEMIA INDUCED BY TRITON
Groups of 10 fasted rats weighing about 200 g are treated with an intraperitoneal injection of Triton at a dose of 300 mg/kg; immediately afterwards, the products are administered orally.
After 18 hours, the cholesterol and triglycerides are determined.

[2] = target: T1, 3-hydroxy-3-methylglutaryl coenzyme A reductase (Rattus norvegicus, UniProt P51639); experiment: Inhibitory activity towards 3-hydroxy-3-methylglutaryl coenzyme A reductase (method of Shefer et al.); type: biochemical
T1 sequence (P51639 1-887): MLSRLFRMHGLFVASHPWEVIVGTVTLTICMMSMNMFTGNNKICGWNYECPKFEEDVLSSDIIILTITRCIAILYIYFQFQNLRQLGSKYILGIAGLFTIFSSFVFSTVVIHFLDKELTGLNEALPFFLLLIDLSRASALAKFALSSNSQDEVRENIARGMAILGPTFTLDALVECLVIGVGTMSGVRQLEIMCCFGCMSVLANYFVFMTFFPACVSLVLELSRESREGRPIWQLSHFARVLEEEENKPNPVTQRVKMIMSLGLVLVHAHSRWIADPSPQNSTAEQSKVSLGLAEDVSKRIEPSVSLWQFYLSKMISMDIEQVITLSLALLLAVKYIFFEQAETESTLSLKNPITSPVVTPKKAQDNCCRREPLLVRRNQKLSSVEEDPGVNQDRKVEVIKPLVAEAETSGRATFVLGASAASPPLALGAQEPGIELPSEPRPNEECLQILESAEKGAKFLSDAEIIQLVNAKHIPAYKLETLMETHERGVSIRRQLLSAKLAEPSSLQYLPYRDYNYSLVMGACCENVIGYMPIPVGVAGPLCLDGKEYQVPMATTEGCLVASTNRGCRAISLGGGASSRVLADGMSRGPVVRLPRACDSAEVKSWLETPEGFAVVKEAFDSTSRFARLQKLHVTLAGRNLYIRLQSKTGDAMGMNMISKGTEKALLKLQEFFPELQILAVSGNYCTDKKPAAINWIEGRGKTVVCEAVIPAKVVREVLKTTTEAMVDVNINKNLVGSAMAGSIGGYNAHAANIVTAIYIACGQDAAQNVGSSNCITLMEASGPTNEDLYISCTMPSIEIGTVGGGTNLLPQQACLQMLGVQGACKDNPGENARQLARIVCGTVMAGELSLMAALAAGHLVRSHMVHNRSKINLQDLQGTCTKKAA
From the text: EXAMPLE XVII-DETERMINATION OF THE INHIBITORY ACTIVITY OF THE COMPOUNDS TOWARDS 3-HYDROXY-3-METHYLGLUTARYL COENZYME A REDUCTASE
The method used is the one described by Shefer et al. (J. Lipid Res. 1972, 13, 402); cf. also Stokker (J. Med. Chem. 1985, 28, 357).

cholesterol synthesis = details: cited from earlier work
[3] = test system: rats rendered hyperlipemic with olive oil; experiment: Hypolipemic activity in rats rendered hyperlipemic with olive oil; type: in vivo; details: rat, atherogenic diet enriched with olive oil
Protocol: EXAMPLE XVI-HYPOLIPEMIC ACTIVITY IN RATS RENDERED HYPERLIPEMIC WITH OLIVE OIL
A group of rats is placed on an atherogenic hyperlipemic diet enriched with olive oil and the animals are then treated per os. The cholesterol and triglycerides are then determined as in the previous example. […]

[4] = per os 100 mg/kg, listed as Ex. IV
[5] = oral 150 mg/kg, listed as Ex. IV
[6] = per os 100 mg/kg, listed as Ex. I
[7] = oral 150 mg/kg, listed as Ex. I
[8] = per os 100 mg/kg, listed as Ex. III
[9] = oral 150 mg/kg, listed as Ex. III

IC50 [2]	Structure (SMILES)	Cholesterol level ([1]; oral 150 mg/kg)	Triglyceride level ([1]; oral 150 mg/kg)	also measured
130 nM	CC1=CC(OC(=O)[C@@H]2CCC(=O)N2)CC(C)(C)C1 (stereo partly drawn) [Example XI, L-Pyroglutamate of 3,5,5-trimethylcyclohex-2-en-1-ol]	2.00 g/L	1.92 g/L	
	O=C(O)c1cccnc1 [nicotinic acid, reference compound]			Cholesterol level ([1]; oral 500 mg/kg): 5.00 g/L; Triglyceride level ([1]; oral 500 mg/kg): 1.41 g/L
400 nM	CC1CCCC(C)C1OC(=O)[C@@H]1CCC(=O)N1 (stereo partly drawn) [Example X, L-Pyroglutamate of 2,6-dimethylcyclohexanol]			
	CN(C)CCCN(C)[C@H]1CC[C@H]2[C@@H]3CC=C4C[C@@H](O)CC[C@]4(C)[C@H]3CC[C@]12C [20, 25-Diazacholesterol]			inhibits cholesterol synthesis (cholesterol synthesis): inhibits cholesterol synthesis
500 nM	CC(=O)N[C@@H](CC(=O)O)C(=O)OC1CC(C)CC(C)(C)C1 (stereo partly drawn) [Example VII, MAGNESIUM SALT OF 3,3,5-TRIMETHYLCYCLOHEXYL N-ACETYL-L-α-ASPARTATE]	3.00 g/L	2.70 g/L	
150 nM	CC1CC(OC(=O)[C@@H]2CCC(=O)N2)CC(C)(C)C1 (single isomer, unassigned) [Example IV, 3,3,5-TRIMETHYLCYCLOHEXYL PYROGLUTAMATE]			Cholesterol level [3, 4]: 1.47 g/L; Triglyceride level [3, 4]: 0.80 g/L; Cholesterol level [1, 5]: 2.15 g/L; Triglyceride level [1, 5]: 0.85 g/L
600 nM	CC1(OC(=O)[C@@H]2CCC(=O)N2)CCCC1 [Example XII, L-Pyroglutamate of 1-methylcyclopentanol]			
550 nM	O=C1CC[C@@H](C(=O)OC2CCCCC2)N1 [Example VIII, L-Pyroglutamate of cyclohexanol]			
120 nM	CC1CC(OC(=O)[C@@H](N)CCC(=O)O)CC(C)(C)C1 (stereo partly drawn) [Example VI, TRANS-3,3,5-TRIMETHYLCYCLOHEXYL L-α-GLUTAMATE HYDROCHLORIDE]	2.50 g/L	2.00 g/L	
100 nM	CC1CC(OC(=O)[C@@H]2CCC(=O)N2)CC(C)(C)C1 (single isomer, unassigned) [Example I, 3,3,5-Trimethylcyclohexyl L-pyroglutamate]			Cholesterol level ([3]; per os 25 mg/kg): 1.73 g/L; Triglyceride level ([3]; per os 25 mg/kg): 1.39 g/L; Cholesterol level [3, 6]: 1.50 g/L; Triglyceride level [3, 6]: 0.80 g/L; Cholesterol level ([1]; oral 50 mg/kg): 2.80 g/L; Triglyceride level ([1]; oral 50 mg/kg): 1.46 g/L; Cholesterol level [1, 7]: 1.95 g/L; Triglyceride level [1, 7]: 0.93 g/L
	CC1CC(OC(=O)[C@@H]2CCC(=O)N2)CC(C)(C)C1 (some centres unmarked) [Example III, 3,3,5-trimethylcyclohexyl pyroglutamate]			Cholesterol level [3, 8]: 1.47 g/L; Triglyceride level [3, 8]: 1.01 g/L; Cholesterol level [1, 9]: 2.00 g/L; Triglyceride level [1, 9]: 1.10 g/L
300 nM	CC1=CCC(C(C)(C)OC(=O)[C@@H]2CCC(=O)N2)CC1 (stereo partly drawn) [Example XIV, L-Pyroglutamate of terpineol]	2.12 g/L	1.10 g/L	
80 nM	CC1CC(OC(=O)[C@@H](N)CCC(N)=O)CC(C)(C)C1 (stereo partly drawn) [Example V, trans-3,3,5-trimethylcyclohexyl L-γ-amidoglutamate hydrochloride]	1.95 g/L	1.15 g/L	Cholesterol level ([3]; per os 100 mg/kg): 1.62 g/L; Triglyceride level ([3]; per os 100 mg/kg): 0.92 g/L
400 nM	CC1CC(C)CC(OC(=O)[C@@H]2CCC(=O)N2)C1 (stereo partly drawn) [Example IX, L-Pyroglutamate of 3,5-dimethylcyclohexanol]	2.10 g/L	1.30 g/L	
210 nM	CC1=CCC(OC(=O)[C@@H]2CCC(=O)N2)(C(C)C)CC1 (stereo partly drawn) [Example XIII, L-Pyroglutamate of terpin-4-enol]	1.90 g/L	1.20 g/L	

From US5236946A, “Amino acid esters of cycloaliphatic alcohols and their use in treating lipemic disorders” (Panmedica S.A., priority 1986, dated 1993)
